Assay results as given in patent publication US20250352606A1, “Pharmaceutical Composition for Promoting Neurogenesis and Method of Utilizing Gastrodia Elata Extract or Adenosine Analog for Promoting Neurogenesis” (AXR Pharma Inc., priority 2019, published 2025).

Tests used:
[1] = tested on: D-galactose-induced aging mice; assay: Nesting test and burrowing test in D-galactose-induced aging mice; format: in vivo; conditions: D-galactose 0.2 g/kg s.c.; test substance oral gavage once a day for 6 weeks
Description: (§1) A total of nine groups with 6 each animal experiments were conducted. The animals in groups 1-9 were: 1: blank control group, 2: D-galactose (0.2 g/kg), 3: D-galactose (0.2 g/kg)+vitamin E (100 mg/kg), 4: D-galactose (0.2 g/kg)+TM1-2 low dose (5 mg/kg), 5: D-galactose (0.2 g kg)+TM1-2 mid-dose group (20 mg/kg), 6: D-galactose (0.2 g/kg)+TM1-2 high dose group (50 mg/kg), 7: D-galactose (0.2 g/kg)+T1-11 low dose group (1 mg/Kg), 8: D-galactose (0.2 g/kg)+T1-11 high dose group (10 mg/kg), 9: T1-11 (10 mg/kg). D-galactose was treated by subcutaneous injection (0.2 g/kg body weight), and G. elata extract TM1-2, T1-11 and vitamin E were orally administrated (oral gavage). The test substances were treated once a day, continuing for 6 weeks. When administering, in addition to the blank control group, each group was continued to treat with 0.2 g/kg (body weight) D-galactose subcutaneously injected via back neck, and the blank control group was subcutaneously injected with physiological saline. […]
In the Nesting Test (Deacon R (2012), Deacon RM (2006)), mice were given nesting materials, and they made nests in the corners of the cage and stayed in the nest. By using the nature of mouse nesting, nest cotton swabs were given, the scores of completing nesting were calculated, and the weight of the remaining unbroken cotton was weighed to assess the degree of mouse aging (FIGS. 5A and 5B). […]

[2] = tested on: superoxide dismutase (SOD); assay: Superoxide dismutase activity in serum and brain tissue of D-galactose-treated animals; format: in vivo, mice; conditions: serum, cortex and hippocampus; galactose-induced animals
Description: as §1, with “saline. The vitamin E group was used as a positive control group. After observing their behavior, the animals are intraperitoneally injected with […] 5-bromo-2′-deoxyuridine (BrdU) continuously for one week. Then the animals were sacrificed to take their brain tissue and blood.” for “saline.”

[3] = tested on: p53, p16, p21 protein expression; assay: Cellular senescence related molecules (p53, p16, p21) in SH-SY5Y cells; format: cell-based
[4] = tested on: BrdU and DCX-expressing cells in the hippocampus; assay: Neurogenesis markers BrdU and DCX in hippocampus of D-galactose-induced mice (immunostaining); format: in vivo
Description: as §1
After observing the behavior, the animals of Example 6 are intraperitoneally injected with […] 5-bromo-2′-deoxyuridine (BrdU) continuously for a week. […] The sections were immunohistochemically stained by first reacting with the first antibody, doublecortin (DCX) (purchased from Abcam) and then with a fluorescence-labeled secondary antibody (purchased from Jackson Labs Technologies, Inc). […]

[5] = tested on: glucose-6-phosphate dehydrogenase (G6PD); assay: Glucose-6-phosphate dehydrogenase in serum and brain tissue of D-galactose-treated animals; format: in vivo, mice; conditions: serum, cortex and hippocampus; galactose-induced animals
Description: as §1, with “saline. The vitamin E group was used as a positive control group. After observing their behavior, the animals are intraperitoneally injected with […] 5-bromo-2′-deoxyuridine (BrdU) continuously for one week. Then the animals were sacrificed to take their brain tissue and blood.” for “saline.”

[6] = tested on: lipid peroxidation (malondialdehyde, MDA); assay: Lipid peroxidation in serum and brain tissue of D-galactose-treated animals; format: in vivo, mice; conditions: serum, cortex and hippocampus; galactose-induced animals
Description: as §1, with “saline. The vitamin E group was used as a positive control group. After observing their behavior, the animals are intraperitoneally injected with […] 5-bromo-2′-deoxyuridine (BrdU) continuously for one week. Then the animals were sacrificed to take their brain tissue and blood.” for “saline.”

catalase (CAT) = assay: Catalase activity in serum and brain tissue of D-galactose-treated animals; format: in vivo, mice; conditions: serum, cortex and hippocampus; galactose-induced animals
Description: as §1, with “saline. The vitamin E group was used as a positive control group. After observing their behavior, the animals are intraperitoneally injected with […] 5-bromo-2′-deoxyuridine (BrdU) continuously for one week. Then the animals were sacrificed to take their brain tissue and blood.” for “saline.”

SH-SY5Y cells = assay: SA-β-gal staining of senescence SH-SY5Y cells; format: cell-based; conditions: senescence SH-SY5Y cells treated for 24 hours
Description: SH-SY5Y cells (purchased from Taiwan and Bioresource Collection and Research Center (BCRC), 08C0066) was cultured in DMEM containing 10% fetal bovine serum, 100 U/ml penicillin and 100 µg/ml streptomycin in a carbon dioxide incubator. When SH-SY5Y cells were grown in a 100 mm culture dish to a fullness of 80%, subculture was carried out. […] Thus, the intracellular amount of SA-β-gal in the test cells were used as an indicator of cell senescence. These senescence cells were then used to perform the following aging-related cell experiments.
The senescence SH-SY5Y cells in embodiment 3 were treated with the G. elata crude extract TM1, the G. elata extract TM1-2 and N^6-(4-hydroxybenzyl) adenosine (T1-11) for 24 hours, then fixed with 4% formaldehyde, following by staining with SA-β-gal to evaluate the cell senescence level. […] Furthermore, the mechanism of cell senescence is currently known to be driven by two independent pathways, p53-p21 pathway and p16-Rb pathway. Both p21 and p16 are cyclin-dependent kinase inhibitors (CDKI), which prevent Rb from being phosphorylated so as to inhibit Rb. Consequently, the activity of E2F transcription factors is inhibited and the cell cycle is therefore blocked. p53, p63 and p73 can directly induce the activation of p21 protein, leading to arrest in cell cycle and cellular senescence.

[7] = tested on: glutathione peroxidase (GSH-Px); assay: Glutathione peroxidase in serum and brain tissue of D-galactose-treated animals; format: in vivo, mice; conditions: serum, cortex and hippocampus; galactose-induced animals
Description: as §1, with “saline. The vitamin E group was used as a positive control group. After observing their behavior, the animals are intraperitoneally injected with […] 5-bromo-2′-deoxyuridine (BrdU) continuously for one week. Then the animals were sacrificed to take their brain tissue and blood.” for “saline.”

[8] = tested on: D-galactose-induced aging mice; assay: Morris water maze test in D-galactose-induced aging mice; format: in vivo; conditions: D-galactose 0.2 g/kg s.c.; test substance oral gavage once a day for 6 weeks
Description: A total of nine groups with 6 each animal experiments were conducted. The animals in groups 1-9 were: 1: blank control group, 2: D-galactose (0.2 g/kg), 3: D-galactose (0.2 g/kg)+vitamin E (100 mg/kg), 4: D-galactose (0.2 g/kg)+TM1-2 low dose (5 mg/kg), 5: D-galactose (0.2 g kg)+TM1-2 mid-dose group (20 mg/kg), 6: D-galactose (0.2 g/kg)+TM1-2 high dose group (50 mg/kg), 7: D-galactose (0.2 g/kg)+T1-11 low dose group (1 mg/Kg), 8: D-galactose (0.2 g/kg)+T1-11 high dose group (10 mg/kg), 9: T1-11 (10 mg/kg). D-galactose was treated by subcutaneous injection (0.2 g/kg body weight), and G. elata extract TM1-2, T1-11 and vitamin E were orally administrated (oral gavage). The test substances were treated once a day, continuing for 6 weeks. When administering, in addition to the blank control group, each group was continued to treat with 0.2 g/kg (body weight) D-galactose subcutaneously injected via back neck, and the blank control group was subcutaneously injected with physiological saline. The vitamin E group was used as a positive control group.
Furthermore, the memory learning ability of mice was evaluated using the Morris water maze test (Vorhees C V, et al. (2006)) (FIG. 7A and FIG. 7B).

[9] = tested on: gamma amino butyric acid (GABA) metabolism; conditions: An, et al (2003); cited from earlier work

Row | Structure (SMILES) | cognitive behavioral deficit: construction of nests and burrowing [1] | activity of superoxide dismutase (SOD) [2] | p53, p16, p21 protein expression [3] | expression of BrdU in the hippocampus [4] | expression of DCX in the hippocampus [4] | level of glucose-6-phosphate dehydrogenase (G6PD) reduced by galactose [5] | lipid peroxidation (malondialdehyde, MDA) [6] | activity of catalase (CAT) (catalase (CAT)) | intracellular SA-β-gal (cell senescence level) (SH-SY5Y cells) | level of glutathione peroxidation (GSH-Px) reduced by galactose [7] | cognitive behavioral deficit incl. memory learning ability; higher dose better improvement [8] | metabolism of GABA in gerbil hippocampus [9]
1 | OC[C@H]1O[C@@H](n2cnc3c(NCc4ccc(O)cc4)ncnc32)[C@H](O)[C@@H]1O [T1-11, N^6-(4-hydroxybenzyl) adenosine] | effectively ameliorate the animal cognitive behavioral deficit | significantly repaired the reduced activity | inhibition of p53, p16, p21 protein expression | ameliorate the reduced expression | ameliorate the reduced expression | effectively reversed | significantly repaired | significantly repaired the reduced activity | significantly reduce SA-β-gal | effectively reversed | ameliorate cognitive behavioral deficit | 
2 | OCc1ccc(O[C@@H]2O[C@H](CO)[C@@H](O)[C@H](O)[C@H]2O)cc1 [gastrodin] |  |  |  |  |  |  |  |  |  |  |  | alter the metabolism of gamma amino butyric acid (GABA)
